ChEMBL document CHEMBL1201862, “PubChem BioAssay data set” (2004)
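Results reflect a 48-hour exposure of cells in 96-well plates to compound at five concentrations. GI50 = concentration required for 50% inhibition of growth.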 The source made the active and inactive calls. Rule as the data show it: active = GI50 up to about 1.1 µM and inactive = higher.

Assays:
Assay in all cases: NCI-60 cell line screen, 48 h
[1] = system: NCI-H226
[2] = system: SW-620
[3] = system: MOLT-4
[4] = system: IGROV-1
[5] = system: UO-31
[6] = system: U-251
[7] = system: T47D
[8] = system: HOP-92
[9] = system: A498
[10] = system: MCF7
[11] = system: SK-MEL-2
[12] = system: SK-OV-3
[13] = system: A549
[14] = system: Hs-578T
[15] = system: HCT-15
[16] = system: NCI-H23
[17] = system: OVCAR-5
[18] = system: MDA-MB-435
[19] = system: NCI-H460
[20] = system: OVCAR-8
[21] = system: EKVX
[22] = system: M14
[23] = system: MDA-N
[24] = system: UACC-62
[25] = system: HT-29
[26] = system: MDA-MB-231
[27] = system: COLO 205
[28] = system: SNB-19
[29] = system: HL-60
[30] = system: NCI/ADR-RES
[31] = system: TK-10
[32] = system: RPMI-8226
[33] = system: SNB-75
[34] = system: SF-539
[35] = system: OVCAR-3
[36] = system: SF-268
[37] = system: HOP-62
[38] = system: SN12C
[39] = system: RXF 393
[40] = system: BT-549
[41] = system: UACC-257
[42] = system: K562
[43] = system: 786-0
[44] = system: SF-295
[45] = system: KM12
[46] = system: HCC 2998
[47] = system: DU-145
[48] = system: SK-MEL-28
[49] = system: OVCAR-4
[50] = system: ACHN
[51] = system: HCT-116
[52] = system: SK-MEL-5
[53] = system: CAKI-1
[54] = system: SR
[55] = system: NCI-H522
[56] = system: LOX IMVI
[57] = system: CCRF-CEM
[58] = system: PC-3
[59] = system: Malme-3M

**Q.** With COc1ccccc1N1C(=O)CSC1c1c[nH]c2ccccc12 (stereo not drawn) as the compound, how does the GI50 [1] read?
**A.** > 100 µM (inactive)

**Q.** What about the GI50 [2] of the same compound?
**A.** > 100 µM (inactive)

**Q.** And the GI50 [3]?
**A.** > 100 µM (inactive)

**Q.** What about the GI50 [4] of the same compound?
**A.** > 100 µM (inactive)

**Q.** What about the GI50 [5] of the same compound?
**A.** 58.1 µM (inactive)

**Q.** What about the GI50 [6] of the same compound?
**A.** > 100 µM (inactive)

**Q.** What about the GI50 [7] of the same compound?
**A.** > 100 µM (inactive)

**Q.** And the GI50 [8]?
**A.** > 100 µM (inactive)

**Q.** What about the GI50 [9] of the same compound?
**A.** > 100 µM (inactive)

**Q.** What about the GI50 [10] of the same compound?
**A.** > 100 µM (inactive)

**Q.** What about the GI50 [11] of the same compound?
**A.** > 100 µM (inactive)

**Q.** And the GI50 [12]?
**A.** > 100 µM (inactive)

**Q.** And the GI50 [13]?
**A.** > 100 µM (inactive)

**Q.** What about the GI50 [14] of the same compound?
**A.** > 100 µM (inactive)

**Q.** And the GI50 [15]?
**A.** > 100 µM

**Q.** What about the GI50 [16] of the same compound?
**A.** > 100 µM (inactive)

**Q.** And the GI50 [17]?
**A.** > 100 µM (inactive)

**Q.** And the GI50 [18]?
**A.** > 100 µM (inactive)

**Q.** And the GI50 [19]?
**A.** > 100 µM (inactive)

**Q.** And the GI50 [20]?
**A.** > 100 µM (inactive)

**Q.** What about the GI50 [21] of the same compound?
**A.** > 100 µM (inactive)

**Q.** And the GI50 [22]?
**A.** > 100 µM (inactive)

**Q.** What about the GI50 [23] of the same compound?
**A.** > 100 µM (inactive)

**Q.** What about the GI50 [24] of the same compound?
**A.** > 100 µM (inactive)

**Q.** What about the GI50 [25] of the same compound?
**A.** > 100 µM (inactive)

**Q.** What about the GI50 [26] of the same compound?
**A.** 3.69 µM (inactive)

**Q.** What about the GI50 [27] of the same compound?
**A.** > 100 µM (inactive)

**Q.** And the GI50 [28]?
**A.** > 100 µM (inactive)

**Q.** And the GI50 [29]?
**A.** > 100 µM (inactive)

**Q.** And the GI50 [30]?
**A.** > 100 µM (inactive)

**Q.** What about the GI50 [31] of the same compound?
**A.** > 100 µM (inactive)

**Q.** And the GI50 [32]?
**A.** > 100 µM (inactive)

**Q.** And the GI50 [33]?
**A.** 27.6 µM (inactive)

**Q.** What about the GI50 [34] of the same compound?
**A.** > 100 µM (inactive)

**Q.** And the GI50 [35]?
**A.** > 100 µM (inactive)

**Q.** And the GI50 [36]?
**A.** 42.8 µM (inactive)

**Q.** And the GI50 [37]?
**A.** > 100 µM (inactive)

**Q.** And the GI50 [38]?
**A.** > 100 µM (inactive)

**Q.** And the GI50 [39]?
**A.** > 100 µM (inactive)

**Q.** And the GI50 [40]?
**A.** > 100 µM (inactive)

**Q.** And the GI50 [41]?
**A.** > 100 µM (inactive)

**Q.** And the GI50 [42]?
**A.** > 100 µM (inactive)

**Q.** And the GI50 [43]?
**A.** > 100 µM (inactive)

**Q.** What about the GI50 [44] of the same compound?
**A.** > 100 µM (inactive)

**Q.** What about the GI50 [45] of the same compound?
**A.** > 100 µM (inactive)

**Q.** And the GI50 [46]?
**A.** > 100 µM (inactive)

**Q.** And the GI50 [47]?
**A.** > 100 µM (inactive)

**Q.** What about the GI50 [48] of the same compound?
**A.** 66.7 µM (inactive)

**Q.** And the GI50 [49]?
**A.** > 100 µM (inactive)

**Q.** And the GI50 [50]?
**A.** > 100 µM (inactive)

**Q.** And the GI50 [51]?
**A.** > 100 µM (inactive)

**Q.** What about the GI50 [52] of the same compound?
**A.** > 100 µM (inactive)

**Q.** Which results are given for Cc1cccc(Cl)c1NC(=O)/C=C/c1ccccc1?
**A.** GI50 [1]: > 100 µM (inactive); GI50 [53]: 76.9 µM (inactive); GI50 [2]: > 100 µM (inactive); GI50 [3]: > 100 µM (inactive); GI50 [4]: 97.5 µM (inactive); GI50 [6]: 87.7 µM (inactive); GI50 [7]: 36.7 µM (inactive); GI50 [8]: 29.6 µM (inactive); GI50 [9]: > 100 µM (inactive); GI50 [10]: 32.5 µM (inactive); GI50 [11]: > 100 µM (inactive); GI50 [12]: 37.3 µM (inactive); GI50 [13]: 94 µM (inactive); GI50 [14]: 33 µM (inactive); GI50 [54]: > 100 µM (inactive); GI50 [15]: > 100 µM; GI50 [16]: > 100 µM (inactive); GI50 [17]: > 100 µM (inactive); GI50 [18]: > 100 µM (inactive); GI50 [19]: 86.3 µM (inactive); GI50 [20]: 26.1 µM (inactive); GI50 [21]: 49.2 µM (inactive); GI50 [22]: > 100 µM (inactive); GI50 [23]: > 100 µM (inactive); GI50 [55]: 49.3 µM (inactive); GI50 [56]: > 100 µM (inactive); GI50 [24]: > 100 µM (inactive); GI50 [25]: 59.3 µM (inactive); GI50 [26]: 32.4 µM (inactive); GI50 [27]: > 100 µM (inactive); GI50 [28]: > 100 µM (inactive); GI50 [29]: 84.1 µM (inactive); GI50 [31]: 40.6 µM (inactive); GI50 [32]: 32.3 µM (inactive); GI50 [33]: 24.2 µM (inactive); GI50 [34]: 44.8 µM (inactive); GI50 [35]: > 100 µM (inactive); GI50 [36]: 67 µM (inactive); GI50 [37]: 74.6 µM (inactive); GI50 [38]: 80.5 µM (inactive); GI50 [57]: > 100 µM (inactive); GI50 [40]: > 100 µM (inactive); GI50 [41]: > 100 µM (inactive); GI50 [58]: > 100 µM (inactive); GI50 [42]: > 100 µM (inactive); GI50 [43]: 36.3 µM (inactive); GI50 [44]: 36.6 µM (inactive); GI50 [45]: 74.5 µM (inactive); GI50 [46]: 74.6 µM (inactive); GI50 [47]: 67.6 µM (inactive); GI50 [48]: > 100 µM (inactive); GI50 [49]: 26.9 µM (inactive); GI50 [50]: 42.3 µM (inactive); GI50 [51]: 39.4 µM (inactive); GI50 [52]: 95.5 µM (inactive); GI50 [59]: > 100 µM (inactive)
